Results on seven molecules are retold here after patent US4923963A, “Bradykinin antagonist peptides” (Nova Technology Limited Partnership, priority 1987, dated 1990).

Data set [1] concerns isolated guinea pig ileum. The class given is cell-based. On the set-up: pA2 /GPI: activity class: scale not given here. The essentials: (§1)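 Antagonism of bradykinin-induced contraction in isolated rat uterus (natural or induced estrus) and guinea pig ileum. Antagonist preincubated 30 s before a double-ED50 bradykinin dose, with the dose raised until the response fell to that of a single ED50. pA2 is the negative log molar antagonist concentration achieving this (Schild method).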

A further data set relates to rat blood pressure. The experiment in a line: effects on blood pressure in the anesthetized rat (RBP), intraaortic and intravenous bolus. It counts as in vivo. Also noted: RBP-IA: activity class / RBP-IV: activity class: scale not given here. The conditions noted are these: for % DESTR (metabolic breakdown of BK-like agonists in RBP assay): relative to BK = 100%. The protocol:
The in vivo effects of bradykinin antagonists on blood pressure in the anesthetized rat are determined according to the assay described by Roblero, Ryan and Stewart (Res. Commun. Pathol. Pharmacol. 6:207, 1973). The antagonists also produce inhibition of the bradykinin response when injected as a bolus admixture of bradykinin plus antagonist by either the ia or iv route of administration.

Another data set relates to isolated rat uterus. The class given is cell-based. The essentials:
as §1

For data set [2] the following is noted: in vivo; cited from earlier work.
The test system of the next data set is pulmonary circulation. The conditions noted are these: anesthetized rat; cited from earlier work.
The mark [3] stands for this setting: rat blood pressure, intraaortic bolus.
Where [4] appears, read: rat blood pressure, intravenous bolus.

Like-named read-outs stand apart in the source and are kept apart here. Square brackets hold non-standard residues; d marks the D form. Ends that are not written are not given here. Peptide text beside a SMILES is read from it. Hyp = O=C(O)[C@@H]1C[C@@H](O)CN1; 2Thi = N[C@@H](Cc1cccs1)C(=O)O

Turning to `CC(=O)N[C@@H](CCCNC(=N)N)C(=O)N1CCC[C@H]1C(=O)N1CCC[C@H]1C(=O)NCC(=O)N[C@@H](Cc1cccs1)C(=O)N[C@@H](CO)C(=O)N[C@H](Cc1ccccc1)C(=O)N[C@@H](Cc1cccs1)C(=O)N[C@H](CCCNC(=N)N)C(=O)O` [Example 42, Ac-Arg-Pro-Pro-Gly-Thi-Ser-DPhe^7 -Thi-DArg] (Ac-RPPG[2Thi]S[dF][2Thi][dR]-OH), the “pA2 /GPI: activity class” value in data set [1] (isolated guinea pig ileum, not quantitated) amounted to 0. For the same molecule, the “RBP-IA: activity class” value in the data set on rat blood pressure (setting [3]) is 0. The “RBP-IV: activity class” value in the data set on rat blood pressure (setting [4]) stood at 0. Moreover, the “pA2 /RUT: activity class” value in the data set on isolated rat uterus (isolated rat uterus, not quantitated) is 0.
On to `CC[C@H](C)[C@H](NC(=O)[C@H](CCCNC(=N)N)NC(=O)[C@H](Cc1ccccc1)NC(=O)[C@@H]1CCCN1C(=O)[C@H](CO)NC(=O)[C@H](Cc1ccccc1)NC(=O)CNC(=O)[C@@H]1CCCN1C(=O)[C@@H]1CCCN1C(=O)[C@H](CCCNC(=N)N)NC(=O)[C@H](N)CCCNC(=N)N)C(=O)N[C@@H](Cc1ccc(O)cc1)C(=O)O` [Example 60, DArg-Arg-Pro-Pro-Gly-Phe-Ser-Pro-Phe-Arg-Ile-Tyr] (H-[dR]RPPGFSPFRIY-OH), for which the “pA2 /GPI: agonist potency as percent of BK potency” value in data set [1] (isolated guinea pig ileum) came out at 34%. The “RBP-IA: agonist potency as percent of BK potency” value (“RBP-IA … as percent of BK potency” for short) in the data set on rat blood pressure (setting [3]) is listed as 12%. In addition, in the data set on rat blood pressure (setting [4]), the “RBP-IV: agonist potency as percent of BK potency” value is on record as 189%. Also, the “% DESTR (metabolic breakdown of BK-like agonists in RBP assay)” value in the data set on rat blood pressure is given as 47%. The “pA2 /RUT: agonist potency as percent of BK potency” value (“pA2 /RUT … as percent of BK potency” below) in the data set on isolated rat uterus (isolated rat uterus) stood at 25%.
The matching figures for `CC[C@H](C)[C@H](NC(=O)[C@H](CCCNC(=N)N)NC(=O)[C@H](Cc1ccccc1)NC(=O)[C@@H]1CCCN1C(=O)[C@H](CO)NC(=O)[C@H](Cc1ccccc1)NC(=O)CNC(=O)[C@@H]1CCCN1C(=O)[C@@H]1CCCN1C(=O)[C@H](CCCNC(=N)N)NC(=O)[C@H](CCCCN)NC(=O)[C@@H](N)CCCCN)C(=O)N[C@@H](Cc1ccc(O)cc1)C(=O)O` [Example 61, Lys-Lys-Arg-Pro-Pro-Gly-Phe-Ser-Pro-Phe-Arg-Ile-Tyr]: 21%, 9%, 497%, 0% and 18%.
Regarding `CC[C@H](C)[C@H](NC(=O)[C@H](CCCNC(=N)N)NC(=O)[C@H](Cc1cccs1)NC(=O)[C@@H](Cc1ccccc1)NC(=O)[C@H](CO)NC(=O)[C@H](Cc1cccs1)NC(=O)CNC(=O)[C@@H]1C[C@@H](O)CN1C(=O)[C@@H]1CCCN1C(=O)[C@H](CCCNC(=N)N)NC(=O)[C@H](N)CCCNC(=N)N)C(=O)N[C@@H](Cc1ccc(O)cc1)C(=O)O` [Example 68, DArg-Arg-Pro-Hyp-Gly-Thi-Ser-DPhe-Thi-Arg-Ile-Tyr] (H-[dR]RP[Hyp]G[2Thi]S[dF][2Thi]RIY-OH), the “pA2 /GPI (antagonist potency)” value in data set [1] (isolated guinea pig ileum, number of tissues in parentheses) amounted to 6.7. Moreover, the “RBP-IA … as percent of BK potency” value in the data set with rat blood pressure (rat, in vivo) came out at 7%. The “pA2 /RUT … as percent of BK potency” value in the data set on isolated rat uterus is on record as 0.02%.
With “RPPGFSPFR [bradykinin, Arg-Pro-Pro-Gly-Phe-Ser-Pro-Phe-Arg]”, the “pD2 value (negative log of dose causing half maximal contraction)” value in data set [1] (guinea pig ileum) stood at 7.4; in the data set with isolated rat uterus (rat uterus), 7.9. In data set [2], the “half life in the systemic circulation” value was “less than 30 seconds”. In addition, the “destruction on a single passage through the pulmonary circulation” value with pulmonary circulation is recorded as 98-99%.
For the molecule “RPPGFSPFRIY [Example 59, Arg-Pro-Pro-Gly-Phe-Ser-Pro-Phe-Arg-Ile-Tyr]”, in data set [1] (isolated guinea pig ileum), the “pA2 /GPI: agonist potency as percent of BK potency” value turned out to be 21%. In the data set with rat blood pressure (setting [3]), the “RBP-IA … as percent of BK potency” value is listed as 6%. The “RBP-IV: agonist potency as percent of BK potency” value in the data set on rat blood pressure (setting [4]) was 103%. Further, in the data set on rat blood pressure, the “% DESTR (metabolic breakdown of BK-like agonists in RBP assay)” value amounted to 61%. For the same molecule, in the data set with isolated rat uterus (isolated rat uterus), the “pA2 /RUT … as percent of BK potency” value turned out to be 26%.
The matching figures for [dK]KRPPGFSPRIY [Example 62]: 1%, 5%, 165%, 0% and 5%.
